The target in one data set is T1, human NK1 receptors (Homo sapiens, UniProt P25103).
T1 construct: expressed in transfected cells; host or cells: CHO cells infected using the Semliki virus expression system; membrane suspension used
Nature of the data set: NK1 receptor binding, [3H]substance P displacement. The settings on record: human NK1 receptor in CHO cells, [3H]substance P 0.6 nM; read-out: affinity to the NK-1 receptor, given as pKi (converted). On the procedure:
The compounds were investigated in accordance with the tests given hereinafter. The affinity of test compounds for the NK1 receptor was evaluated at human NK1 receptors in CHO cells infected with the human NK1 receptor (using the Semliki virus expression system) and radiolabelled with [^3H]substance P (final concentration 0.6 nM). Binding assays were performed in HEPES buffer (50 mM, pH 7.4) containing BSA (0.04%) leupeptin (8 μg/ml), MnCl2 (3 mM) and phosphoramidon (2 μM). Binding assays consisted of 250 μl of membrane suspension (1.25×10^5 cells/assay tube), […] of buffer of displacing agent and 125 μl of [^3H]substance P. Displacement curves were determined with at least seven concentrations of the compound. The assay tubes were incubated for 60 min at room temperature after which time the tube contents were rapidly filtered under vacuum through GF/C filters presoaked for 60 min with PEI (0.3%) with 2×2 ml washes of HEPES buffer (50 mM, pH 7.4). The radioactivity retained on the filters was measured by scintillation counting. All assays were performed in triplicate in at least 2 separate experiments.
The affinity to the NK-1 receptor, given as pKi is described in the table below: […]

Data set [1] in a line: Metabolic stability in vitro in microsomes. It is filed as in vitro ADME. As to conditions: in comparison with 2-(3,5-bis-trifluoromethyl-phenyl)-N-methyl-N-[6-(4-methyl-piperazin-1-yl)-4-o-tolyl-pyridin-3-yl]-isobutyramide.
The nature of data set [2]: PAMPA PSR4p permeability assay. The settings on record: for Acceptor (sample distribution) / Donor (sample distribution) / Membrane (sample distribution) / PE (permeation constant) / PE class: pH 6.5, DMSO stock solution. It is filed as in vitro ADME. On the procedure: The permeability has been searched by the PAMPA PSR4p assay, which is based on 96 well microplates. The permeability is measured using a “sandwich” construction. A filterplate is coated with phospholipids (membrane) and placed into a donor plate containing a drug/buffer solution. Finally the filterplate is filled with buffer solution (acceptor). The donor concentration is measured at t-start (reference) and compared with the donor and acceptor concentration after a certain time t-end.
The following setup is used for the PAMPA PSR4p assay: • Donor: 0.05 M MOPSO buffer at ph 6.5+0.5% (w/v) Glyco cholic acid • Membrane: 10% (w/v) Egg lecithin+0.5% (w/v) cholesterol in dodecane • Acceptor: 0.05 MOPSO buffer at pH 6.5
The liquid handling is done with a TECAN RSP150 pipetting robot. The drug analysis is based on UV spectroscopy. All samples are transferred into 96 well UV plates. A SpectralMax 190 UV plate reader is used to collect the UV spectras.
The pipetting steps can be divided into four parts: 1. Dilution of stock solutions and filtration, 2. Preparation of reference and PAMPA PSR4p sandwich, 3. Transfer of acceptor solutions into UV plate, 4. Transfer of donor solutions into UV plate. The PAMPA PSR4p assay contains information about the sample precipitation in the donor buffer UV spectras of the sample, read at the start of the assay (t-start: reference) and at the end (t-end: donor, acceptor) allow the determination of a sample distribution in donor, membrane and acceptor. Because of the known permeation time (t-end, t-start) a permeation constant can be retrieved.
Background: The PAMPA barrier holds no transporters, so it reflects passive diffusion.

A further data set is described as follows: Equilibrium solubility. The settings on record: for solubility at 24 h: 21 °C, aqueous buffer, thermodynamic from solid. It is filed as physicochemical. On the procedure: Method Description Equilibrium Solubility
[…] A known amount of drug, generally 1–2 mg, was added to 250 μl of buffer (glass tubes), and the resulting suspension was stirred for 2 h (21° C.), after 5 minutes of sonification. The pH of the solution was checked and corrected if necessary (in case of pH correction, the solution was once more shaken and equilibrated), and after 24 h the suspension was filtered through a 0.65-μm filter. The filtered solution was then assayed by HPLC to determine the drug concentration. In cases where the drug had completely dissolved in the buffer, the value for equilibrium solubility was assumed to be higher than the value determined by HPLC and was reported as such. Stock solutions (˜1 mg/ml) in DMSO were used in the preparation of a calibration curve in the related buffer using HPLC analytics.

[3] abbreviates: buffer 0.05 M Phosphate, pH 6.5 (EP 1 035 115) / pH 6.7 (Compound I-2).

Molecules are shown by their SMILES. ≈ marks a conversion by molar mass, not a printed value.

T1 sequence (P25103 whole entry): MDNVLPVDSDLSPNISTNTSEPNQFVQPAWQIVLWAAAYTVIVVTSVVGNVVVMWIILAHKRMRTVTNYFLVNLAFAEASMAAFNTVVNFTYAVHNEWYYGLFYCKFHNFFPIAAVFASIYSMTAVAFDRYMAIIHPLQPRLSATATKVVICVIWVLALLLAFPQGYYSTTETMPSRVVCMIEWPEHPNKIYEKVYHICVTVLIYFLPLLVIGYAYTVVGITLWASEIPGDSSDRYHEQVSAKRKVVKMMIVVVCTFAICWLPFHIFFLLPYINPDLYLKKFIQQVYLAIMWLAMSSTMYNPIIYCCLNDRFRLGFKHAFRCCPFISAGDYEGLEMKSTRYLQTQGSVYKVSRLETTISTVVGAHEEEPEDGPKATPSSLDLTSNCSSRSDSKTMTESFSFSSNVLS

Turning to `Cc1ccccc1-c1cc(N2CC[N+](C)([O-])CC2)ncc1N(C)C(=O)C(C)(C)c1cc(C(F)(F)F)cc(C(F)(F)F)c1` [Compound I-1, 2-(3,5-Bis-trifluoromethyl-phenyl)-N-methyl-N-[6-(4-methyl-4-oxy-piperazin-1-yl)-4-o-tolyl-pyridin-3-yl]-isobutyramide], the Ki at human NK1 receptors is 1 nM. Besides, the “metabolic stability in vitro in microsomes” value in data set [1] was “higher metabolic stability”.

What is called solubility is the concentration that dissolves in the medium under given conditions. Low readings indicate little dissolved substance, high ones much dissolved substance. Regarding `CN1CCN(c2cc(-c3ccccc3CO)c(N(C)C(=O)C(C)(C)c3cc(C(F)(F)F)cc(C(F)(F)F)c3)cn2)CC1` [Compound I-2, 2-(3,5-Bis-trifluoromethyl-phenyl)-N-[4-(2-hydroxymethyl-phenyl)-6-(4-methyl-piperazin-1-yl)-pyridin-3-yl]-N-methyl-isobutyramide], in data set [2], the “permeation speed compared with the corresponding compound of EP 1 035 115” value is reported as “three times higher”, the Acceptor (sample distribution) was 3%, the Donor (sample distribution) turned out to be 26% and the Membrane (sample distribution) was found to be 72%. Moreover, in data set [2], the “PE (permeation constant)” value was found to be 1.81 cm/s × 10^−6 and the PE class entry is “high”. Besides, at human NK1 receptors, the Ki was 0.794 nM. Also, the “solubility, fold higher than the compared compound disclosed in EP 1035 115” value in “Equilibrium solubility” is given as 8 fold. Also, the solubility at 24 h in “Equilibrium solubility” (setting [3]) came to 8 µg/mL (≈ 13.5 µM). The same compound gave a solubility at 24 h in “Equilibrium solubility” (buffer 0.15 M Citrate, pH 4.1) of 200 µg/mL (≈ 336 µM).

With `Cc1ccccc1-c1cc(N2CCN(C)CC2)ncc1N(C)C(=O)C(C)(C)c1cc(C(F)(F)F)cc(C(F)(F)F)c1` [EP 1 035 115, 2-(3,5-bis-trifluoromethyl-phenyl)-N-methyl-N-[6-(4-methyl-piperazin-1-yl)-4-o-tolyl-pyridin-3-yl]-isobutyramide, reference compound], in data set [2], the Acceptor (sample distribution) came out at 2%, the Donor (sample distribution) amounted to 50%, the Membrane (sample distribution) is 49% and the “PE (permeation constant)” value was determined as 0.56 cm/s × 10^−6. Further, the PE class result in data set [2] is recorded as “medium”. The compound further had a solubility at 24 h in the data set “Equilibrium solubility” (setting [3]) of 1 µg/mL (≈ 1.73 µM). Also, the solubility at 24 h in “Equilibrium solubility” (buffer 0.15 M Citrate, pH 4.1) was 26 µg/mL (≈ 44.9 µM).

The values are drawn from US7211579B2, “NK-1 receptor antagonists” (Hoffmann-La Roche Inc., priority 2005, dated 2007).
